Reference: patent publication US20220009920A1 (GB005, Inc., priority 2020, published 2022)

How the values were obtained:
Experiment in all cases: Large panel kinase profiling
Format in all cases: biochemical
Conditions in all cases: 1 μM test article, 1 mM ATP
BMX = target: T1, BMX (Homo sapiens, UniProt P51813)
T1 sequence (P51813 1-675): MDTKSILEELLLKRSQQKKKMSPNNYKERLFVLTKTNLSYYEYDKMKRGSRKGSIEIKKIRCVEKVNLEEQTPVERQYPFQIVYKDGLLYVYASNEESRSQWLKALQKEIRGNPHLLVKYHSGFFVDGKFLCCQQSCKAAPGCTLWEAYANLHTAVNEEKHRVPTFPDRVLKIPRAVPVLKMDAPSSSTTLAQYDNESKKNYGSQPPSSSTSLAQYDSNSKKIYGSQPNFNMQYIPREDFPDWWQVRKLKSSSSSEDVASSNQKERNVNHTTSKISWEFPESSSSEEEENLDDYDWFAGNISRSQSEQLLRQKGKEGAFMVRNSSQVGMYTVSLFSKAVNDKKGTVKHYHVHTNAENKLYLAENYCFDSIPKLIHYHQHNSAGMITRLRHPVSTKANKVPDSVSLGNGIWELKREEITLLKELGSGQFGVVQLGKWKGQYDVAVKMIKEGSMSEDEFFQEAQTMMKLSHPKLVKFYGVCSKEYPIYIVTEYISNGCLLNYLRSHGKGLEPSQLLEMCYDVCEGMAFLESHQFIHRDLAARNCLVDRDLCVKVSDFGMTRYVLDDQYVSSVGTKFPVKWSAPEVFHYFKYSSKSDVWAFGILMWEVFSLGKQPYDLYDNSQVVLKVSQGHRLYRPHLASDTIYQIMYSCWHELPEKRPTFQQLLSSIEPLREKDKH
Procedure, shortened: (§1)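 Steps: combine kinase, CSox-Sensor substrate, 1 mM ATP and 1 μM compound; seal and incubate at 30° C.; read top fluorescence kinetically each minute, Ex 360 nm/Em 485 nm.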

CSNK1A1/CK1A1 = target: T2, CSNK1A1/CK1A1 (Homo sapiens, UniProt P48729)
T2 construct: AssayQuant Technologies, Inc. (service laboratory)
T2 sequence (P48729 whole entry): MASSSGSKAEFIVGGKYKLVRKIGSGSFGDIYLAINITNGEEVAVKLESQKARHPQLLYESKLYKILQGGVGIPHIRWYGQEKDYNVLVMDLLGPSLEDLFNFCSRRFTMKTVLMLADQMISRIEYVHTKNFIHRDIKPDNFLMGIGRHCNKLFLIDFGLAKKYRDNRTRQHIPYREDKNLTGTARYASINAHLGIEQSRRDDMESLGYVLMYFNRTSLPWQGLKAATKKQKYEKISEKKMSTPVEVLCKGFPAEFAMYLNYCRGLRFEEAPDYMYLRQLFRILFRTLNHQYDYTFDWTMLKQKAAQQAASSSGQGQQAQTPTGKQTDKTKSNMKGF
Procedure, shortened: as §1

MAP3K1 = MAP3K1 (Homo sapiens, UniProt Q13233)
Procedure, shortened: as §1

BUB1 = BUB1 (Homo sapiens, UniProt O43683)
Sequence of BUB1 (O43683 whole entry): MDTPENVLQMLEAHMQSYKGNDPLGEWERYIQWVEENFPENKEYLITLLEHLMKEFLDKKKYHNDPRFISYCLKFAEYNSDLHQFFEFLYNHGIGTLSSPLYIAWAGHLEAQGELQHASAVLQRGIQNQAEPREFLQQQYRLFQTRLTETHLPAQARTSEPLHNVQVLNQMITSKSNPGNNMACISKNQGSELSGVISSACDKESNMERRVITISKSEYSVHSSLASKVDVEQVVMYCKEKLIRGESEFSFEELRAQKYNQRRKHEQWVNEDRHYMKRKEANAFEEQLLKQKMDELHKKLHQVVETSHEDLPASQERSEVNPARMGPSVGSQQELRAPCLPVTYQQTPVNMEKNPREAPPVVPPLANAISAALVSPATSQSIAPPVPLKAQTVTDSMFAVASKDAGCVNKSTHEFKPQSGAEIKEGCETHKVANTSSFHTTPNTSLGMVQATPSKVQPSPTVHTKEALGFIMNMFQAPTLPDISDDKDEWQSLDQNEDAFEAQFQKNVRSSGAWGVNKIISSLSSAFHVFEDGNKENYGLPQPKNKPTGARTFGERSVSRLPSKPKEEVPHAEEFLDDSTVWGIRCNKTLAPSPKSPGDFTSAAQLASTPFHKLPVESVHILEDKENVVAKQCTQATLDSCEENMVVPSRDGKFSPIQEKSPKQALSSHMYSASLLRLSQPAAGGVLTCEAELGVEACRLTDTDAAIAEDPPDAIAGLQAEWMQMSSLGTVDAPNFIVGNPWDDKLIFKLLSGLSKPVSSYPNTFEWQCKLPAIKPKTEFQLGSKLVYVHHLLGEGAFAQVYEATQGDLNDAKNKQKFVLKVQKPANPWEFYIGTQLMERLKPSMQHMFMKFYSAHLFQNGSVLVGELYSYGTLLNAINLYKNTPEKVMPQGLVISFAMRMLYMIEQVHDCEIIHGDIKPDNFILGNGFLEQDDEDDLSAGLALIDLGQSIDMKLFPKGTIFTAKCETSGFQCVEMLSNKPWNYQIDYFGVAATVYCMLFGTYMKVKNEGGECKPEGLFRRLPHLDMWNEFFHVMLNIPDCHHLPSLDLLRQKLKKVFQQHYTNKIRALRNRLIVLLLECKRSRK
Procedure, shortened: as §1

ZAP70 = target: T3, ZAP70 (Homo sapiens, UniProt P43403)
T3 construct: AssayQuant Technologies, Inc. (contract laboratory that ran the panel)
T3 sequence (P43403 1-619): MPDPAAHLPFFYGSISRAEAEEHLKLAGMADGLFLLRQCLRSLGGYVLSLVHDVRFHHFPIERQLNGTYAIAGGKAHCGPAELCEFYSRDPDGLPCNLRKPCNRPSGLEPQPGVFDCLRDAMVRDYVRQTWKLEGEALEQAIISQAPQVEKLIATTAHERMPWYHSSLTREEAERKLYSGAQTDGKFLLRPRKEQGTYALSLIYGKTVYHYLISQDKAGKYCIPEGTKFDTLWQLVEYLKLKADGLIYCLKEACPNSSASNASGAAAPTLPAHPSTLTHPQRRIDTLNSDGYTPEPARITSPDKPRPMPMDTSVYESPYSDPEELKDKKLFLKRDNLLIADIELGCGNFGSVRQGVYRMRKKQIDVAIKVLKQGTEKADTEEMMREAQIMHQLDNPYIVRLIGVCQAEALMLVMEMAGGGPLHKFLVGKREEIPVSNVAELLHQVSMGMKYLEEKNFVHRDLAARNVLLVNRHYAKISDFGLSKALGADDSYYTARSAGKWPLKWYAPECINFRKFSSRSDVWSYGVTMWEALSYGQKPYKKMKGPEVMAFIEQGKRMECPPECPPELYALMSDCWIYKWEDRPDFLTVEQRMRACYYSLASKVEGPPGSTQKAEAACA
Procedure, shortened: as §1

MUSK = target: T4, MUSK (Homo sapiens, UniProt O15146)
T4 construct: AssayQuant Technologies, Inc. (assay service)
T4 sequence (O15146 24-869): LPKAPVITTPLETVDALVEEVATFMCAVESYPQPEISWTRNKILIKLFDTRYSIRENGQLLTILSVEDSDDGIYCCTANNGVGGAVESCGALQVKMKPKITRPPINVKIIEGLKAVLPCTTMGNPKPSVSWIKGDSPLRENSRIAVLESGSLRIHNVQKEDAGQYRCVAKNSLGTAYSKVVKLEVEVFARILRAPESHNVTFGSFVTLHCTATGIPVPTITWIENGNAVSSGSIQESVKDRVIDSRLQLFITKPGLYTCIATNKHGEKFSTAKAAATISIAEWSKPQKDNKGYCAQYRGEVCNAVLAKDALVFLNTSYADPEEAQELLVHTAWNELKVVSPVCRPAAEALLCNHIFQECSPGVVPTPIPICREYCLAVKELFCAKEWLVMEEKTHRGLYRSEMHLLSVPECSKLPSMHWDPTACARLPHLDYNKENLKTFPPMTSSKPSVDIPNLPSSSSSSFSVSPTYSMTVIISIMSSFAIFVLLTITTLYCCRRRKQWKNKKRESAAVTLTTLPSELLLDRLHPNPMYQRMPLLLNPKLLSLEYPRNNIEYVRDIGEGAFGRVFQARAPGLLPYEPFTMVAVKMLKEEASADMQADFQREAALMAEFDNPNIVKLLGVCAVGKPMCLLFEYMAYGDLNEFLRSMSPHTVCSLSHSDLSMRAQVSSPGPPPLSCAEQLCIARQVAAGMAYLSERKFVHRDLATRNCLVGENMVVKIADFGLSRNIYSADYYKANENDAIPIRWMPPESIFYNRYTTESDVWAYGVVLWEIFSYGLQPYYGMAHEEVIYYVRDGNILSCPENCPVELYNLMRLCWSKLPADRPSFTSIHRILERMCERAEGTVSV
Procedure, shortened: as §1

GSK3B = target: T5, GSK3B (Homo sapiens, UniProt P49841)
T5 construct: AssayQuant Technologies, Inc. (service provider)
T5 sequence (P49841 whole entry, species assumed): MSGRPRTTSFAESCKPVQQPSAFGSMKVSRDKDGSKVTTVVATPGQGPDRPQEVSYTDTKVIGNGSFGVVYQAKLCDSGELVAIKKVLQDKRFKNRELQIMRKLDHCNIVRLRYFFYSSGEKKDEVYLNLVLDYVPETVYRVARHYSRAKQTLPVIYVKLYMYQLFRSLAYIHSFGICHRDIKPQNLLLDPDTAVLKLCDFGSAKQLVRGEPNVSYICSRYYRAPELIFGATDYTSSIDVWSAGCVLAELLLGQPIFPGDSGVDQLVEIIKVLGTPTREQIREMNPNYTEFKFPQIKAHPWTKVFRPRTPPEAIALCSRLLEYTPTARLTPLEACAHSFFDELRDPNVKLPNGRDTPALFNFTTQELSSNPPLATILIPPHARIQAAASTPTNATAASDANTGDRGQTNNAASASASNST
Procedure, shortened: as §1

BMP2K/BIKE = BMP2K/BIKE (Homo sapiens, UniProt Q9NSY1)
Sequence of BMP2K/BIKE (Q9NSY1 whole entry): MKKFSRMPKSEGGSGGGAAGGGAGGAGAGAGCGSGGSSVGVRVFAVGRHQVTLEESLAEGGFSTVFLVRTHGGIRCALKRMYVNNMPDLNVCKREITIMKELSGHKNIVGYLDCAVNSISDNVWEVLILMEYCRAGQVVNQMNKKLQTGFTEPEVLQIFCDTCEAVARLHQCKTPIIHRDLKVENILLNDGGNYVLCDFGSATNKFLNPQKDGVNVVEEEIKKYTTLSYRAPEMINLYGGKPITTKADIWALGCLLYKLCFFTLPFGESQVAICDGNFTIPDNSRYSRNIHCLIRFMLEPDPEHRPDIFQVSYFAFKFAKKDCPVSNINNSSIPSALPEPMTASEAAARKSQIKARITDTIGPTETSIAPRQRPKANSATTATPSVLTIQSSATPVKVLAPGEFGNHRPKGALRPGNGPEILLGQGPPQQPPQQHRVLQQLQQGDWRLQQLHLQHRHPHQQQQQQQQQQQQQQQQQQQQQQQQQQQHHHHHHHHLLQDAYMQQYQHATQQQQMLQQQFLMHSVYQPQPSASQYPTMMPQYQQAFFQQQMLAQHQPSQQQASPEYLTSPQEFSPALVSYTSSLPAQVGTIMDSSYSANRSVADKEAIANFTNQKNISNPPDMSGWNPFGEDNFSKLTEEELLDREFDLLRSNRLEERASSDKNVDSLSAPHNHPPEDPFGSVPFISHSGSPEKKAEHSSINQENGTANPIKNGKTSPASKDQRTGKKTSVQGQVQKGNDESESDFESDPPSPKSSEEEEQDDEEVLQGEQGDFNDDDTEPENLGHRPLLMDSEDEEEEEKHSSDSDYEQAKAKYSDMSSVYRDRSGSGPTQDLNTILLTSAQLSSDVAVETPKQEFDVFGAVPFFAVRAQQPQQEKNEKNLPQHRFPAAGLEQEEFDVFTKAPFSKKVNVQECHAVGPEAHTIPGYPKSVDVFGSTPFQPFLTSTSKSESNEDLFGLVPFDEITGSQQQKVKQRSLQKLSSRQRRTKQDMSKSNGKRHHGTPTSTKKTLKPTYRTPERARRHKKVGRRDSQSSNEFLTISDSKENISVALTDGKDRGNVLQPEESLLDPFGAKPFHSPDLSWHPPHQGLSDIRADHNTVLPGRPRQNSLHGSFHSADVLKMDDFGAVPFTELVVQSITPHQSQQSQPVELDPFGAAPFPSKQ
Procedure, shortened: as §1

FLT1 = target: T6, FLT1 (Homo sapiens, UniProt P17948)
T6 construct: AssayQuant Technologies, Inc. (service provider)
T6 sequence (P17948 27-1338, species assumed): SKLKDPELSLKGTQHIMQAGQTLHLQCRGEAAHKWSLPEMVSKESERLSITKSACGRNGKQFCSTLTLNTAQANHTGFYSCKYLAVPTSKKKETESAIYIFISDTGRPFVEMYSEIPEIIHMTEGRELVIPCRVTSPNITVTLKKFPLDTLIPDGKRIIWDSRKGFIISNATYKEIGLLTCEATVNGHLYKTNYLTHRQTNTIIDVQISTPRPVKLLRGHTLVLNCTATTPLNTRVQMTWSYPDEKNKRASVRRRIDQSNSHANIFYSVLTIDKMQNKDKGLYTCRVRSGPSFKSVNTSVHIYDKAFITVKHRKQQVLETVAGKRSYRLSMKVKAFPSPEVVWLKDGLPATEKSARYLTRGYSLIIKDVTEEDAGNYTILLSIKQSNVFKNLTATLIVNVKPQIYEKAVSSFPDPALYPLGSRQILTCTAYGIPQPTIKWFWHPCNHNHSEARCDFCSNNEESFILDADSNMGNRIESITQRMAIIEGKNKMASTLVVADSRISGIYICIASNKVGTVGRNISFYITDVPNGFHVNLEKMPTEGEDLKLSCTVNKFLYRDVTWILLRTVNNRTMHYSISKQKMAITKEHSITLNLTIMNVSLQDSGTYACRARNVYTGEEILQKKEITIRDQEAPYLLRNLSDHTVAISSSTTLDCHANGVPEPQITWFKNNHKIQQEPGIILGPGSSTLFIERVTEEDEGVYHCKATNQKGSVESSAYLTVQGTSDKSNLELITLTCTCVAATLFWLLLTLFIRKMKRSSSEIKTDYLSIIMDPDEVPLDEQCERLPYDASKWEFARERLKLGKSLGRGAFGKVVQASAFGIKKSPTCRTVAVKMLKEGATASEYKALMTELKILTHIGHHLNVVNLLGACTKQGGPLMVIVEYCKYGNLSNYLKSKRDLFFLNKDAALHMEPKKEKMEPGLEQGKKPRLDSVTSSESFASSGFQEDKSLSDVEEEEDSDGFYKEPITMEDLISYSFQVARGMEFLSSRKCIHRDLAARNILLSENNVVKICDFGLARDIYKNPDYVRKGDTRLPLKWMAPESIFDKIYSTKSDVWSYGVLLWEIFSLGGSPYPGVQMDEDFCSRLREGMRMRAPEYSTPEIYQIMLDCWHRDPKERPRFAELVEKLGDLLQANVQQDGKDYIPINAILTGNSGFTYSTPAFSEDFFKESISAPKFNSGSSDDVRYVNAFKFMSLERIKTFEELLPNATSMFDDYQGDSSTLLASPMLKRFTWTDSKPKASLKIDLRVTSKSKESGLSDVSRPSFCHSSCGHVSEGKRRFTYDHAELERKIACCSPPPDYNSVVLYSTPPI
Procedure, shortened: as §1

SMILES | inhibition at 1 µM (BMX) | inhibition at 1 µM (CSNK1A1/CK1A1) | inhibition at 1 µM (MAP3K1) | inhibition at 1 µM (BUB1) | inhibition at 1 µM (ZAP70) | inhibition at 1 µM (MUSK) | inhibition at 1 µM (GSK3B) | inhibition at 1 µM (BMP2K/BIKE) | inhibition at 1 µM (FLT1)
C=CC(=O)N1CCCC(c2c(F)cc(C(N)=O)c3[nH]c4c(c23)CCCCC4)C1 (single isomer, unassigned) [Compound 5-6] | 42% | 9.6% | 6.4% | 8.2% | -22.5% | 10.9% | -6% | -18.6% | 12.1%
C=CC(=O)N1CCC[C@@H](c2c(F)cc(C(N)=O)c3[nH]c4c(c23)CC2(CC4)CC2)C1 [Compound 6-2, (S)-5-(1-acryloylpiperidin-3-yl)-6-fluoro-1,2,4,9-tetrahydrospiro[carbazole-3,1′-cyclopropane]-8-carboxamide] | 86% | 11.2% | -7.9% | -11.5% | 1.7% | -3.1% | 18.7% | -12.3% | 20.7%
C=CC(=O)N1CCC[C@@H](c2c(F)cc(C(N)=O)c3[nH]c4c(c23)CCC4)C1 [Compound 10-2, (S)-8-(1-acryloylpiperidin-3-yl)-7-fluoro-1,2,3,4-tetrahydrocyclo-penta[b]indole-5-carboxamide] | 65.2% | -2.8% | 10.3% | -2.3% | -9.5% | 3% | -12.5% | -6.6% | 8.6%
